Reference: ChEMBL document CHEMBL1142797, “2-Aminoquinazoline inhibitors of cyclin-dependent kinases” (Bioorg Med Chem Lett, 2005)

Columns and labels:
[1] = target: Cyclin-dependent kinase 4/cyclin D1 (Homo sapiens, UniProt P11802); experiment: Inhibitory concentration against CDK4/ Cyclin D; assay type: protein-complex assay
[2] = target: Cyclin-dependent kinase 1/cyclin B1 (Homo sapiens, UniProt P06493); experiment: Inhibitory concentration against CDK1/ Cyclin B; assay type: protein-complex assay
Sequence of Cyclin-dependent kinase 1/cyclin B1 (P06493 whole entry): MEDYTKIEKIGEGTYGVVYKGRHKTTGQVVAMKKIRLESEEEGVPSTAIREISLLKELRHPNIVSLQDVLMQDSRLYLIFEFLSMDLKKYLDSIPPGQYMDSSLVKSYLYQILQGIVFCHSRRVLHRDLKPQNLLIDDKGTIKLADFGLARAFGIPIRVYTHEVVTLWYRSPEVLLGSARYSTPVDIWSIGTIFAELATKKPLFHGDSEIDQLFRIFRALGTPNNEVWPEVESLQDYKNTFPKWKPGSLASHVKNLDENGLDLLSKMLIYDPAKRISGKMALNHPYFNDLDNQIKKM
Sequence of Cyclin-dependent kinase 1/cyclin B1 (P14635 whole entry, further chain): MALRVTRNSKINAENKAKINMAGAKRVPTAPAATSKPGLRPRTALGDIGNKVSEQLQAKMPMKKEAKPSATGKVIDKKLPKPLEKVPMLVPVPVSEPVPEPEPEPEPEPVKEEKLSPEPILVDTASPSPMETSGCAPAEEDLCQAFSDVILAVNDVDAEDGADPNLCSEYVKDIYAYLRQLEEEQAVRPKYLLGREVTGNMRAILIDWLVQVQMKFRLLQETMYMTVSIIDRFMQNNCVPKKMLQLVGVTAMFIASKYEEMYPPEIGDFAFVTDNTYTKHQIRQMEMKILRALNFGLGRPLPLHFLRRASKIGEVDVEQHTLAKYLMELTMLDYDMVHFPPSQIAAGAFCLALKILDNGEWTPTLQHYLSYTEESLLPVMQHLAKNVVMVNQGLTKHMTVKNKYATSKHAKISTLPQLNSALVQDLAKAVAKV

[3] = target: Cyclin-dependent kinase 2/cyclin E1 (Homo sapiens, UniProt P24941); experiment: Inhibitory concentration against CDK2/ Cyclin E; assay type: protein-complex assay
[4] = Inhibitory concentration against CDK2/ Cyclin A
[5] = Distribution coefficient at pH 7.4; assay type: physicochemical; conditions: octanol/water
[6] = test system: HCT-116; experiment: Antiproliferative activity against HCT116 cell lines of human; assay type: functional, cell-based

Sequence of Cyclin-dependent kinase 4/cyclin D1 (P11802 whole entry): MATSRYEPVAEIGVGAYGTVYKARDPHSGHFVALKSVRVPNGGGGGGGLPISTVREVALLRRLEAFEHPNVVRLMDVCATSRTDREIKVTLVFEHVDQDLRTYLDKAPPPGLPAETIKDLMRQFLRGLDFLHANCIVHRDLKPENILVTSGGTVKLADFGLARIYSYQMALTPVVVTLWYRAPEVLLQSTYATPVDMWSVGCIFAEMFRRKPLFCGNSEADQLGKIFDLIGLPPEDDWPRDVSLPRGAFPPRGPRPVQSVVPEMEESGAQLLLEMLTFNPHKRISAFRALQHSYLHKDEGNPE
Sequence of Cyclin-dependent kinase 4/cyclin D1 (P24385 whole entry, further chain): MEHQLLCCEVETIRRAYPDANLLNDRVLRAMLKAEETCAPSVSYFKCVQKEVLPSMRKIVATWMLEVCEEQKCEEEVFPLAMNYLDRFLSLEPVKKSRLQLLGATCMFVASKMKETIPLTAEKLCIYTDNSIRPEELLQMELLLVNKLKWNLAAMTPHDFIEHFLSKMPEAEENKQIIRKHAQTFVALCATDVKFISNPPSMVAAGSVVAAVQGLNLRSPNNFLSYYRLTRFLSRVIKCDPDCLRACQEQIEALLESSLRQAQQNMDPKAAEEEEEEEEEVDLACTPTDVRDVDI

IC50 [1] [µM]	IC50 [2] [µM]	IC50 [3] [µM]	logD [5]	IC50 [6] [µM]	Compound	IC50 [4] [µM]
0.003	1.94	0.635	–	–	Oc1ccc2cnc(Nc3ccc(N4CCOCC4)cc3)nc2c1C1CCCC1	0.18
–	–	–	–	–	COc1ccc2cnc(Nc3ccc(N4CCNCC4)cc3)nc2c1C1CCCC1	0.028
–	–	–	–	–	CC(C)c1c(O)ccc2cnc(Nc3ccccc3)nc12	0.25
4.13	> 5	> 5	3.77	–	COc1cc(C)c2cnc(Nc3ccc(N4CCN(C(C)=O)CC4)cc3)nc2c1C1CCCC1	> 5
–	> 5	–	–	–	COc1ccc2cnc(Nc3ccc(N4CCN(C(C)=O)CC4)cc3)nc2c1C1CCCC1	–
–	–	–	–	–	COc1ccc2cnc(Nc3ccc(N4CCOCC4)cc3)nc2c1C(C)C	0.665
0.007	0.743	0.655	–	–	COc1ccc2cnc(Nc3ccc(N4CCNCC4)c(F)c3)nc2c1C(C)C	0.141
–	–	–	–	–	COc1ccc2cnc(Nc3ccc(N4CCNCC4)cc3)nc2c1C(C)C	0.185
–	–	–	–	–	COc1ccc2cnc(Nc3ccc(N4CCNCC4)c(F)c3)nc2c1C1CCCC1	0.062
0.02	> 5	> 5	1.39	0.1	Cc1cc(O)c(C2CCCC2)c2nc(Nc3ccc(N4CCNCC4)cc3)ncc12	> 5
0.166	0.801	0.65	–	–	COc1ccc2cnc(Nc3ccccc3)nc2c1C1CCCC1	0.202
–	–	–	–	–	COc1ccc2cnc(Nc3ccc(N4CCC(N)C4)cc3)nc2c1C(C)C (stereo unspecified)	0.296
0.055	> 5	> 5	2.32	–	COc1cc(C)c2cnc(Nc3ccc(N4CCNCC4)cc3)nc2c1C1CCCC1	> 5
–	–	–	–	–	COc1ccc2cnc(Nc3ccccc3)nc2c1C(C)C	0.253
–	–	–	–	–	COc1ccc2cnc(Nc3ccc(N4CCN(C(=O)CN)CC4)cc3)nc2c1C1CCCC1	0.095
–	–	–	–	–	COc1ccc2cnc(Nc3ccc(N4CCN(C(=O)CN)CC4)cc3)nc2c1C(C)C	0.191
0.001	0.03	0.32	–	–	Oc1ccc2cnc(Nc3ccc(N4CCNCC4)cc3)nc2c1C1CCCC1	0.082
–	> 5	–	0.63	–	Cc1cc(=O)n(C2CCCC2)c2nc(Nc3ccc(N4CCNCC4)cc3)ncc12	–
–	–	–	–	–	COc1ccc2cnc(Nc3ccc(N4CCOCC4)cc3)nc2c1C1CCCC1	0.384
0.001	0.761	0.27	–	–	Oc1ccc2cnc(Nc3ccc(N4CCNCC4)c(F)c3)nc2c1C1CCCC1	0.112

Compound	IC50 [1] [µM]	IC50 [2] [µM]	IC50 [3] [µM]	logD [5]	IC50 [6] [µM]	IC50 [4] [µM]
COc1ccc2cnc(Nc3ccc(N4CCC(N)C4)cc3)nc2c1C1CCCC1 (stereo unspecified)	–	–	0.775	–	–	0.203
COc1ccc2cnc(Nc3ccc(N4CCCC4)cc3)nc2c1C(C)C	–	> 5	> 5	–	–	1.6
COc1ccc2cnc(Nc3ccc(N4CCCCC4)cc3)nc2c1C1CCCC1	–	> 5	> 5	–	–	0.384
COc1ccc2cnc(Nc3ccc(N4CCCCC4)cc3)nc2c1C(C)C	–	> 5	–	–	–	0.41
COc1ccc2cnc(Nc3ccc(N4CCCC4)cc3)nc2c1C1CCCC1	–	> 5	–	–	–	> 5
